Results from patent publication US9302999B2, “Substituted triazoles as herbicides” (E. I. DU PONT DE NEMOURS AND COMPANY, priority 2012, dated 2016).

How the values were obtained:
Format in all cases: in vivo
[1] = system: panicum, fall (fall panicum Panicum dichotomiflorum); experiment: Test F pre-/postemergence: panicum, fall
Description: (§1) Seeds of plant species selected from corn (Zea mays), soybean (Glycine max), velvetleaf (Abutilon theophrasti), lambsquarters (Chenopodium album), poinsettia, wild (wild poinsettia, Euphorbia heterophylla), pigweed, palmer (palmer pigweed, Amaranthus palmeri), waterhemp (common waterhemp, Amaranthus rudis), surinam grass (Brachiaria decumbens), crabgrass, Brazil (Brazilian crabgrass, Digitaria horizontalis), panicum, fall (fall panicum Panicum dichotomiflorum), crabgrass, large (large crabgrass, Digitaria sanguinalis), foxtail, giant (giant foxtail, Setaria faberii), foxtail, green (green foxtail Setaria viridis), goosegrass (Eleusine indica), ragweed (common ragweed, Ambrosia elatior), barnyardgrass (Echinochloa crus-galli), sandbur (southern sandbur, Cenchrus echinatus), arrowleaf sida (Sida rhombifolia), ryegrass, Italian (Italian ryegrass, Lolium multiflorum), dayflower, VA (Virginia (VA) dayflower, Commelina virginica), field bindweed (Convolvulus arvensis), cocklebur (common cocklebur, Xanthium strumarium), morningglory (Ipomoea coccinea), nightshade (eastern black nightshade, Solanum ptycanthum), kochia (Kochia scoparia), nutsedge, yellow (yellow nutsedge, Cyperus esculentus), johnsongrass (Sorghum halepense), smartweed (ladysthumb smartweed, Polygonum persicaria), and beggarticks (hairy beggarticks, Bidens pilosa), were planted into a silt loam soil and treated preemergence with test chemicals formulated in a non-phytotoxic solvent mixture which included a surfactant. At the same time, plants selected from these crop and weed species and also pigweed (Amaranthus retroflexus), waterhemp_RES1 (ALS/Triazine resistant common waterhemp, Amaranthus rudis) and waterhemp_RES2 (ALS/HPPD resistant common waterhemp, Amaranthus rudis) were planted in pots containing a planting medium comprising spaghnum peat moss, vermiculite, wetting agent and starter nutrients treated with postemergence applications of some of the test chemicals formulated in the same manner. Plants ranged in height from 2 to 18 cm for postemergence treatments (1- to 4-leaf stage).
(§2) Treated plants and controls were maintained in a greenhouse for 14 to 21 days, after which time all species were compared to controls and visually evaluated. Plant response ratings, summarized in Table E, are based on a scale of 0 to 100 where 0 is no effect and 100 is complete control. A dash (-) response means no test result.

soybean (Glycine max) = experiment: Test F pre-/postemergence: soybean
Description: as §1, §2

[2] = system: poinsettia, wild (wild poinsettia, Euphorbia heterophylla); experiment: Test F pre-/postemergence: poinsettia, wild
Description: as §1, §2

[3] = system: canarygrass (Phalaris minor); experiment: Test D pre-/postemergence: canarygrass
Procedure, shortened: (§3)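 Visual 0–100 rating versus untreated controls (0 no effect, 100 complete control), taken 14 to 21 days after treatment in a controlled growth environment. Preemergence: silt loam soil. Postemergence: peat moss/vermiculite medium, plants 2 to 18 cm, 1- to 4-leaf stage. Solvent mixture with surfactant.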

[4] = system: barley, spring (spring barley, Hordeum vulgare); experiment: Test D pre-/postemergence: barley, spring
Procedure, shortened: as §3

[5] = system: radish, wild (wild radish, Raphanus raphanistrum); experiment: Test D pre-/postemergence: radish, wild
Procedure, shortened: as §3

[6] = system: field poppy (Papaver rhoeas); experiment: Test D pre-/postemergence: field poppy
Procedure, shortened: as §3

[7] = system: oat, wild (wild oat, Avena fatua); experiment: Test D pre-/postemergence: oat, wild
Procedure, shortened: as §3

[8] = system: barley, winter (winter barley, Hordeum vulgare); experiment: Test D pre-/postemergence: barley, winter
Procedure, shortened: as §3

[9] = system: field violet (Viola arvensis); experiment: Test D pre-/postemergence: field violet
Procedure, shortened: as §3

[10] = Postemergence, 8 g ai/ha, scale 0 to 100
[11] = Postemergence, 16 g ai/ha, scale 0 to 100
[12] = Postemergence, 31 g ai/ha, scale 0 to 100
[13] = Postemergence, 62 g ai/ha, scale 0 to 100
[14] = Postemergence, 125 g ai/ha, scale 0 to 100
[15] = Preemergence, 16 g ai/ha, scale 0 to 100, 0 no effect, 100 complete control
[16] = Preemergence, 31 g ai/ha, scale 0 to 100, 0 no effect, 100 complete control
[17] = Preemergence, 125 g ai/ha, scale 0 to 100
[18] = Preemergence, 250 g ai/ha, scale 0 to 100
[19] = Postemergence, 31 g ai/ha, scale 0 to 100 (0 no effect, 100 complete control)
[20] = Postemergence, 62 g ai/ha, scale 0 to 100 (0 no effect, 100 complete control)
[21] = Postemergence, 125 g ai/ha, scale 0 to 100, 0 no effect, 100 complete control
[22] = Postemergence, 250 g ai/ha, scale 0 to 100 (0 no effect, 100 complete control)
[23] = Preemergence, 62 g ai/ha, scale 0 to 100

`Cc1nn(-c2ccnc(Cl)c2)nc1Cc1ccnc(C(F)(F)F)c1` [Compound 141] was tested, and the “Plant response rating, Panicum, Fall” value [1, 10] was 30, the “Plant response rating, Panicum, Fall” value [1, 11] was 50 and the “Plant response rating, Panicum, Fall” value [1, 12] was 50. The “Plant response rating, Panicum, Fall” value [1, 13] was 60, the “Plant response rating, Panicum, Fall” value [1, 14] was 75 and the “Plant response rating, Soybean” value (soybean (Glycine max); [10]) was 50. For the same molecule, the “Plant response rating, Soybean” value (soybean (Glycine max); [11]) was 70, the “Plant response rating, Soybean” value (soybean (Glycine max); [12]) was 80 and the “Plant response rating, Soybean” value (soybean (Glycine max); [14]) was 85. For the same molecule, the “Plant response rating, Poinsettia, Wild” value [2, 10] was 60, the “Plant response rating, Poinsettia, Wild” value [2, 11] was 80 and the “Plant response rating, Poinsettia, Wild” value [2, 12] was 85. The “Plant response rating, Poinsettia, Wild” value [2, 13] was 95 and the “Plant response rating, Poinsettia, Wild” value [2, 14] was 98.
`COc1nn(-c2cccc(F)c2)nc1Cc1ccnc(C(F)(F)F)c1` [Compound 139] was tested, and the “Plant response rating, Panicum, Fall” value [1, 15] was 0, the “Plant response rating, Panicum, Fall” value [1, 16] was 25 and the “Plant response rating, Panicum, Fall” value [1, 17] was 100. For the same molecule, the “Plant response rating, Panicum, Fall” value [1, 18] was 100, the “Plant response rating, Soybean” value (soybean (Glycine max); [15]) was 0 and the “Plant response rating, Soybean” value (soybean (Glycine max); [16]) was 0. The “Plant response rating, Soybean” value (soybean (Glycine max); [17]) was 0, the “Plant response rating, Soybean” value (soybean (Glycine max); [18]) was 35 and the “Plant response rating, Poinsettia, Wild” value [2, 15] was 0. For the same molecule, the “Plant response rating, Poinsettia, Wild” value [2, 16] was 20, the “Plant response rating, Poinsettia, Wild” value [2, 17] was 75 and the “Plant response rating, Poinsettia, Wild” value [2, 18] was 80.
With `Cc1nn(-c2ccc(C(F)(F)F)cc2)nc1Oc1ccnc(C(F)(F)F)c1` [Compound 120] the “Plant response rating: Canarygrass” value [3, 19] was 5, the “Plant response rating: Canarygrass” value [3, 20] was 20 and the “Plant response rating: Canarygrass” value [3, 21] was 90. The “Plant response rating: Canarygrass” value [3, 22] was 95, the “Plant response rating, Canarygrass” value [3, 11] was 0 and the “Plant response rating, Canarygrass” value [3, 15] was 0. The “Plant response rating, Canarygrass” value [3, 16] was 90, the “Plant response rating, Canarygrass” value [3, 23] was 100 and the “Plant response rating, Canarygrass” value [3, 17] was 100. For the same molecule, the “Plant response rating, Canarygrass” value [3, 18] was 100, the “Plant response rating: Barley, Spring” value [4, 19] was 10 and the “Plant response rating: Barley, Spring” value [4, 20] was 15. The “Plant response rating: Barley, Spring” value [4, 21] was 15, the “Plant response rating: Barley, Spring” value [4, 22] was 30 and the “Plant response rating, Barley, Spring” value [4, 11] was 5. For the same molecule, the “Plant response rating, Barley, Spring” value [4, 15] was 0, the “Plant response rating, Barley, Spring” value [4, 16] was 0 and the “Plant response rating, Barley, Spring” value [4, 23] was 5. The “Plant response rating, Barley, Spring” value [4, 17] was 10, the “Plant response rating, Barley, Spring” value [4, 18] was 20 and the “Plant response rating: Radish, Wild” value [5, 19] was 100. The “Plant response rating: Radish, Wild” value [5, 20] was 90, the “Plant response rating: Radish, Wild” value [5, 21] was 100 and the “Plant response rating: Radish, Wild” value [5, 22] was 100. The “Plant response rating, Radish, Wild” value [5, 11] was 100, the “Plant response rating, Radish, Wild” value [5, 15] was 0 and the “Plant response rating, Radish, Wild” value [5, 23] was 20. The “Plant response rating, Radish, Wild” value [5, 17] was 90, the “Plant response rating, Radish, Wild” value [5, 18] was 100 and the “Plant response rating: Field Poppy” value [6, 19] was 100. For the same molecule, the “Plant response rating: Field Poppy” value [6, 20] was 100, the “Plant response rating: Field Poppy” value [6, 21] was 100 and the “Plant response rating: Field Poppy” value [6, 22] was 100. The “Plant response rating, Field Poppy” value [6, 11] was 100, the “Plant response rating, Field Poppy” value [6, 15] was 0 and the “Plant response rating, Field Poppy” value [6, 16] was 80. For the same molecule, the “Plant response rating, Field Poppy” value [6, 23] was 80, the “Plant response rating, Field Poppy” value [6, 17] was 100 and the “Plant response rating, Field Poppy” value [6, 18] was 100. The “Plant response rating: Oat, Wild” value [7, 19] was 10, the “Plant response rating: Oat, Wild” value [7, 20] was 20 and the “Plant response rating: Oat, Wild” value [7, 21] was 35. The “Plant response rating: Oat, Wild” value [7, 22] was 70, the “Plant response rating, Oat, Wild” value [7, 11] was 10 and the “Plant response rating, Oat, Wild” value [7, 15] was 0. For the same molecule, the “Plant response rating, Oat, Wild” value [7, 16] was 5, the “Plant response rating, Oat, Wild” value [7, 23] was 25 and the “Plant response rating, Oat, Wild” value [7, 17] was 55. For the same molecule, the “Plant response rating, Oat, Wild” value [7, 18] was 100, the “Plant response rating: Barley, Winter” value [8, 19] was 15 and the “Plant response rating: Barley, Winter” value [8, 20] was 20. For the same molecule, the “Plant response rating: Barley, Winter” value [8, 21] was 20, the “Plant response rating: Barley, Winter” value [8, 22] was 40 and the “Plant response rating, Barley, Winter” value [8, 11] was 10. For the same molecule, the “Plant response rating, Barley, Winter” value [8, 15] was 0, the “Plant response rating, Barley, Winter” value [8, 16] was 0 and the “Plant response rating, Barley, Winter” value [8, 23] was 10. For the same molecule, the “Plant response rating, Barley, Winter” value [8, 17] was 15, the “Plant response rating, Barley, Winter” value [8, 18] was 40 and the “Plant response rating: Field Violet” value [9, 19] was 70. The “Plant response rating: Field Violet” value [9, 20] was 100, the “Plant response rating: Field Violet” value [9, 21] was 100 and the “Plant response rating: Field Violet” value [9, 22] was 100. For the same molecule, the “Plant response rating, Field Violet” value [9, 11] was 70, the “Plant response rating, Field Violet” value [9, 15] was 75 and the “Plant response rating, Field Violet” value [9, 16] was 90. The “Plant response rating, Field Violet” value [9, 23] was 95, the “Plant response rating, Field Violet” value [9, 17] was 100 and the “Plant response rating, Field Violet” value [9, 18] was 100.
For `Cc1nn(-c2ccc(C(F)(F)F)cn2)nc1Oc1ccnc(C(F)(F)F)c1` [Compound 23], the “Plant response rating: Canarygrass” value [3, 19] was 15, the “Plant response rating: Canarygrass” value [3, 20] was 20 and the “Plant response rating: Canarygrass” value [3, 21] was 25. For the same molecule, the “Plant response rating: Canarygrass” value [3, 22] was 30, the “Plant response rating, Canarygrass” value [3, 11] was 10 and the “Plant response rating: Barley, Spring” value [4, 19] was 0. The “Plant response rating: Barley, Spring” value [4, 20] was 10, the “Plant response rating: Barley, Spring” value [4, 21] was 10 and the “Plant response rating: Barley, Spring” value [4, 22] was 15. For the same molecule, the “Plant response rating, Barley, Spring” value [4, 11] was 0, the “Plant response rating: Radish, Wild” value [5, 19] was 20 and the “Plant response rating: Radish, Wild” value [5, 20] was 40. The “Plant response rating: Radish, Wild” value [5, 21] was 75, the “Plant response rating: Radish, Wild” value [5, 22] was 100 and the “Plant response rating, Radish, Wild” value [5, 11] was 20. The “Plant response rating: Field Poppy” value [6, 19] was 70, the “Plant response rating: Field Poppy” value [6, 20] was 90 and the “Plant response rating: Field Poppy” value [6, 21] was 100. The “Plant response rating: Field Poppy” value [6, 22] was 100, the “Plant response rating, Field Poppy” value [6, 11] was 75 and the “Plant response rating: Oat, Wild” value [7, 19] was 10. The “Plant response rating: Oat, Wild” value [7, 20] was 10, the “Plant response rating: Oat, Wild” value [7, 21] was 15 and the “Plant response rating: Oat, Wild” value [7, 22] was 20. The “Plant response rating, Oat, Wild” value [7, 11] was 10, the “Plant response rating: Barley, Winter” value [8, 19] was 0 and the “Plant response rating: Barley, Winter” value [8, 20] was 10. The “Plant response rating: Barley, Winter” value [8, 21] was 10, the “Plant response rating: Barley, Winter” value [8, 22] was 20 and the “Plant response rating, Barley, Winter” value [8, 11] was 0. For the same molecule, the “Plant response rating: Field Violet” value [9, 19] was 40, the “Plant response rating: Field Violet” value [9, 20] was 50 and the “Plant response rating: Field Violet” value [9, 21] was 70. The “Plant response rating: Field Violet” value [9, 22] was 80 and the “Plant response rating, Field Violet” value [9, 11] was 20.
